# Where “and” joins values, the source holds several entries; their conditions need not be identical. Equal values may be shown once.
# Experiments:
# [1] = Rate of dissolution in H2O at 25° C.; type: physicochemical
# [2] = system: sweetness intensity of 6% sucrose; test: Sulfamate & 6% sucrose Sweetness Enhancement Test (sensory rating against 6-10% sucrose references); type: in vivo; parameters: key to Sweetness Intensity Rating (6-10), subject #1 / Sweetness Intensity Rating (6-10), subject #2 / Sweetness Intensity Rating (6-10), subject #3 / Sweetness Intensity Rating (6-10), subject #4 / Sweetness Intensity Rating (6-10), subject #5 / Average Intensity Rating: sweetness rated 6-10 relative to 6-10% sucrose references
# Method: Sensory studies that were carried out on the N-substituted sulfamic acid salts included 1) preliminary sulfamate analogue Sweetness Detection Threshold (SDT) estimation, 2) refined Sweetness Detection Threshold (SDT) estimation, 3) N-substituted sulfamic acid salts mixed with 6% sucrose Sweetness Enhancement Test and 4) repeat of step 3. Reference samples were prepared at 6, 7, 8, 9 and 10% sucrose (w/v). […] Each of the ten samples was then individually rated for sweetness intensity on a scale of 6-10 relative to the 6-10% sucrose references.
# [3] = system: sweet taste; test: Preliminary sulfamate analogue Sweetness Detection Threshold (SDT) estimation, sip-and-spit, one experienced subject; type: in vivo; conditions: for sweet taste exhibited: 15.6-1,000 ppm solutions in water, one subject
# Method: Sensory studies that were carried out on the N-substituted sulfamic acid salts included 1) preliminary sulfamate analogue Sweetness Detection Threshold (SDT) estimation, 2) refined Sweetness Detection Threshold (SDT) estimation, 3) N-substituted sulfamic acid salts mixed with 6% sucrose Sweetness Enhancement Test and 4) repeat of step 3. A 1,000 ppm sulfamate analogue solution was prepared by dissolution of 20 mg sulfamate analogue in 20 mL purified water. An aliquot (10 mL) of this solution was diluted to 20 mL with water to obtain a 500 ppm solution. Additional 1:1 serial dilutions step were used to obtain 250, 125, 62.5, 31.2 and 15.6 ppm solutions. These solutions were then tasted in ascending order of concentration by one experienced subject by using a sip-and-spit protocol. The subject's estimated SDT was determined to be at the lowest concentration at which sweetness was definitely observed.
# [4] = system: sweet taste; test: N-alkyl sulfamate SDT estimation, sip-and-spit, 5 experienced subjects; type: in vivo
# Method: A 250 ppm solution of 4 was prepared by dissolution of 50 mg sulfamate in 200 mL purified water. An aliquot (100 mL) of this solution then was diluted to 200 mL with water to obtain a 125 ppm solution. Additional 1:1 serial dilution steps were used to prepare 62.5, 31.2 and 15.6 ppm solutions. These solutions then were tasted in ascending order of concentration by 5 experienced subjects by a sip-and-spit protocol.
# [5] = 125 ppm in 6% sucrose, single test sample, listed as NS
molecule,measurement,setting,value
"C=C1C[C@@]23CC[C@H]4[C@@](C)(CCC[C@@]4(C)C(=O)O[C@@H]4O[C@H](CO)[C@@H](O)[C@H](O)[C@H]4O)[C@@H]2CC[C@]1(O[C@@H]1O[C@H](CO)[C@@H](O)[C@H](O[C@@H]2O[C@H](CO)[C@@H](O)[C@H](O)[C@H]2O)[C@H]1O[C@@H]1O[C@H](CO)[C@@H](O)[C@H](O)[C@H]1O)C3 [Form 1, rebaudioside A]",Rate of dissolution in H2O at 25° C.,[1]; in 60 minutes,Very low (<0.2%
"C=C1C[C@@]23CC[C@H]4[C@@](C)(CCC[C@@]4(C)C(=O)O[C@@H]4O[C@H](CO)[C@@H](O)[C@H](O)[C@H]4O)[C@@H]2CC[C@]1(O[C@@H]1O[C@H](CO)[C@@H](O)[C@H](O[C@@H]2O[C@H](CO)[C@@H](O)[C@H](O)[C@H]2O)[C@H]1O[C@@H]1O[C@H](CO)[C@@H](O)[C@H](O)[C@H]1O)C3 [Form 2, rebaudioside A]",Rate of dissolution in H2O at 25° C.,[1]; in 5 minutes,Intermediate (<30%
"C=C1C[C@@]23CC[C@H]4[C@@](C)(CCC[C@@]4(C)C(=O)O[C@@H]4O[C@H](CO)[C@@H](O)[C@H](O)[C@H]4O)[C@@H]2CC[C@]1(O[C@@H]1O[C@H](CO)[C@@H](O)[C@H](O[C@@H]2O[C@H](CO)[C@@H](O)[C@H](O)[C@H]2O)[C@H]1O[C@@H]1O[C@H](CO)[C@@H](O)[C@H](O)[C@H]1O)C3 [Form 3, rebaudioside A]",Rate of dissolution in H2O at 25° C.,[1]; in 5 minutes,High (>30%
"C=C1C[C@@]23CC[C@H]4[C@@](C)(CCC[C@@]4(C)C(=O)O[C@@H]4O[C@H](CO)[C@@H](O)[C@H](O)[C@H]4O)[C@@H]2CC[C@]1(O[C@@H]1O[C@H](CO)[C@@H](O)[C@H](O[C@@H]2O[C@H](CO)[C@@H](O)[C@H](O)[C@H]2O)[C@H]1O[C@@H]1O[C@H](CO)[C@@H](O)[C@H](O)[C@H]1O)C3 [Form 4, rebaudioside A]",Rate of dissolution in H2O at 25° C.,[1]; in 5 minutes,High (>35.0%
"CC1CCCCC1NS(=O)(=O)[O-].[Na+] (stereo not shown) [sulfamate 2, sodium 1H-2-methyl cyclohexyl sulfamate]",sweetness intensity of a 6.0% sugar solution increased to the equivalent of,[2]; about 430 ppm in 6.0% sugar solution,about 7.3 % sugar solution
same,sweet taste exhibited,[3],exhibit sweet taste
same,off-taste,"[3]; 1,000 ppm in water",some bitterness off-taste problems
same,taste,"[3]; 1,000 ppm in water",slight sweet taste
same,sweet taste of the sulfamate by itself,[3]; no sugar,not sweet by itself
"CC(C)(C)CCNS(=O)(=O)[O-].[Na+] [sulfamate 3A, sodium 1H-3,3-dimethyl butyl sulfamate]",sweetness intensity of a 6.0% sugar solution increased to the equivalent of,[2]; about 406 ppm in 6.0% sugar solution,about 7.0 % sugar solution
same,sweet taste of the sulfamate by itself,[3]; no sugar,not sweet by itself
"CC(C)(C)CCNS(=O)(=O)[O-].[K+] [sulfamate 3B, potassium 1H-3,3-dimethyl butyl sulfamate]",sweetness intensity of a 6.0% sugar solution increased to the equivalent of,[2]; about 200 ppm in 6.0% sugar solution,about 7.0 % sugar solution
same,sweet taste of the sulfamate by itself,[3]; in amounts up to 1000 ppm,not sweet by itself
"O=S(=O)([O-])NC1CC2CCC1C2.[Na+] (stereo not shown) [sulfamate 4, sodium bicycle[2.2.1]heptan-2-yl sulfamate]",Average Intensity Rating,"[2]; 125 ppm in 6% sucrose, single test sample, mean of 5 subjects, listed as NS",8.2 and 8.4 and 7.2 and 8.6
same,"Sweetness Intensity Rating (6-10), subject #1",[2]; [5],8 and 9 and 7
same,"Sweetness Intensity Rating (6-10), subject #2",[2]; [5],8 and 9 and 7 and 10
same,"Sweetness Intensity Rating (6-10), subject #3",[2]; [5],8 and 7
same,"Sweetness Intensity Rating (6-10), subject #4",[2]; [5],9 and 7
same,"Sweetness Intensity Rating (6-10), subject #5",[2]; [5],8 and 7
same,"average sweetness intensity rating, with 6% Sucrose Test Average","[2]; 125 ppm in 6% sucrose, scale 6-10 relative to 6-10% sucrose references, mean of four test samples",8.1
same,sweetness intensity of a 6.0% sugar solution increased to the equivalent of,[2]; about 125 ppm in 6.0% sugar solution,about 8.1 % sugar solution
same,Sweetness Detection Threshold (SDT),"[4]; 5 subjects, in water",< 125 ppm
same,taste,"[4]; 15.6 ppm solution, all 5 subjects",absence of taste
same,taste,"[4]; 31.2 ppm solution, all 5 subjects",absence of taste
same,taste,"[4]; 62.5 ppm solution, 3 out of 5 subjects",very faint sweetness
same,"sweetness, sugar equivalent","[4]; 125 ppm solution, 4 out of 5 subjects",less than 1 % sugar equivalent
same,sweetness comparable to that of sucrose,"[4]; 250 ppm sample, all 5 subjects",ca. 2 % sucrose
same,equivalent sweetness intensity by itself,"[4]; about 62 ppm, by itself",< 1 % sugar solution
same,sweet taste exhibited,[3],exhibit sweet taste
same,off-taste,"[3]; 1,000 ppm in water",no off-taste
same,taste,"[3]; 1,000 ppm in water",strong sweet taste
same,sweet taste of the sulfamate by itself,[3]; no sugar,very faint sweet taste
same,taste,[3]; ca. 62 ppm in water,weak sweet taste
"sodium 1H-1,3,5-triazolyl sulfamate [sulfamate 1]",sweetness intensity of a 6.0% sugar solution increased to the equivalent of,[2]; about 372 ppm in 6.0% sugar solution,about 7.1 % sugar solution
same,sweet taste of the sulfamate by itself,[3]; no sugar,not sweet by itself
sodium 1H-thiazolyl sulfamate [sulfamate 5],sweetness intensity of a 6.0% sugar solution increased to the equivalent of,[2]; about 404 ppm in 6.0% sugar solution,about 6.9 % sugar solution
same,sweet taste of the sulfamate by itself,[3]; no sugar,not sweet by itself

# Reference: patent publication US8383183B2, “Sweetness enhancers, sweetness enhanced sweetener compositions, methods for their formulation, and uses” (The Coca-Cola Company, priority 2007, dated 2013)
